# Test results published in patent US7964642B2, “Vanilloid TRPV1 receptor antagonists” (Pharmeste S.R.L., priority 2004, dated 2011).
# Key:
# vanilloid TRPV1 receptor [1] = target: T1, vanilloid TRPV1 receptor (Rattus norvegicus, UniProt O35433); experiment: Ca2+ fluorescence measurements in cultured rat trigeminal ganglia neurons: inhibition of capsaicin-induced calcium mobilisation; format: cell-based; conditions: capsaicin 0.1 μM; for IC50: 10 minutes pre-incubation, mean and 95% fiducial limits, read-out: IC50 inhibiting capsaicin-evoked [Ca2+]i mobilization; for concentration giving complete inhibition of the response to capsaicin / threshold concentration that produced an inhibitory effect: compounds incubated 10 minutes prior to capsaicin challenge
# T1 construct: rat trigeminal neuronal cells, that therefore were identified as TRPV1 expressing neurons; endogenous in cells; host or cells: primary trigeminal ganglion neurons from 2-day-old Sprague-Dawley rats
# Description: Ca^2+ Fluorescence Measurements in Cultured Rat Trigeminal Ganglia
# Newborn rats (2 days old) were terminally anaesthetized and decapitated. Trigeminal ganglia were removed and rapidly placed in a cold phosphate buffered solution (PBS) before being transferred to collagenase/dispase (1 mg/ml dissolved in Ca^2+-Mg^2+-free PBS) for 35 min. at 37° C.^4.
# After the enzymatic treatment the ganglia were rinsed three times with Ca^2+-Mg^2+-free PBS and then placed in 2 ml of cold DMEM supplemented with 10% foetal bovine serum (FBS, heat inactivated), 2 mM L-glutamine, 100 μ/ml penicillin and […] streptomycin. The ganglia were then dissociated into single cells by several passages through a series of syringe needles (23 G down to 25 G). Finally, the medium and ganglia cells sieved through a […] filter to remove debris and taken up with 8 ml of DMEM medium and centrifuged (200×g for 5 min.). The final cell pellet was re-suspended in DMEM medium (supplemented with 100 ng/ml mouse Nerve Growth Factor (mouse-NGF-7S) and cytosine-β-D-arabino-furanoside free base (ARA-C) […]). The cells were plated on poly-L-lysine (8.3 mM) and laminin (5 mM) coated 25 mm glass cover slips and kept for 2 to 5 days at 37° C. in a humidified incubator gassed with 5% CO2 and air. Plated neurons were loaded with Fura-2-AM-ester (3 μM) in Ca^2+ buffer solution of the following composition (mM): CaCl2 1.4, KCl 5.4, MgSO4 0.4, NaCl 135, D-glucose 5, HEPES 10 with BSA 0.1%, at pH 7.4, for 40 min at 37° C., washed twice with the Ca^2+ buffer solution and transferred to a chamber on the stage of a Nikon eclipse TE300 microscope. The dye was excited at 340 and 380 nm to indicate relative [Ca^2+]i changes by the F340/F380 ratio recorded with a dynamic image analysis system (Laboratory Automation 2.0, RCS, Florence, Italy). Capsaicin (0.1 μM) and ionomycin (5 μM) were added to the chamber. A calibration curve using a buffer containing Fura-2-AM-ester and determinant concentrations of free Ca^2+ was used to convert the obtained data from F340/F380 ratio to [Ca^2+]i (nM)^5.
# The effects of Ia, Ib and Ic were tested against capsaicin-induced calcium mobilisation; Ia, Ib and Ic were incubated for 10 minutes prior to the capsaicin challenge. The inhibitory effect of the reference TRPV1 antagonist, capsazepine, was also tested.
# [2] = tested on: rat trigeminal neuronal cells; experiment: Ca2+ fluorescence measurements in cultured rat trigeminal ganglia neurons: KCl-evoked [Ca2+]i mobilization; format: cell-based; conditions: 5 mM KCl
# vanilloid TRPV1 receptor [3] = target: T1, vanilloid TRPV1 receptor; experiment: Wiping test in rats (capsaicin-induced wiping movements); format: in vivo; conditions: intraperitoneal; for effect on capsaicin-induced wiping in rats: 15 minutes prior to capsaicin challenge; for ED50 capsaicin-induced wiping: 15 minutes prior to capsaicin challenge (capsaicin 0.1%, 50 μl on conjunctiva), mean and 95% fiducial limits
# Description: Newborn and adult Sprague-Dawley rats (˜250 g) were used (Harlam, Italy). All experiments complied with the national guidelines and were approved by the regional ethics committee.
# The irritant effect (induction of wiping movements) of capsaicin was assessed by applying capsaicin 0.1% (50 μl) on the rat conjunctiva and the number of wiping movements was recorded during the 60 s period that followed the application. In another set of experiments, the rats were treated intraperitoneally with different doses of Ia and Ic and capsaicin-induced wiping was studied.
# T1 sequence (O35433 whole entry): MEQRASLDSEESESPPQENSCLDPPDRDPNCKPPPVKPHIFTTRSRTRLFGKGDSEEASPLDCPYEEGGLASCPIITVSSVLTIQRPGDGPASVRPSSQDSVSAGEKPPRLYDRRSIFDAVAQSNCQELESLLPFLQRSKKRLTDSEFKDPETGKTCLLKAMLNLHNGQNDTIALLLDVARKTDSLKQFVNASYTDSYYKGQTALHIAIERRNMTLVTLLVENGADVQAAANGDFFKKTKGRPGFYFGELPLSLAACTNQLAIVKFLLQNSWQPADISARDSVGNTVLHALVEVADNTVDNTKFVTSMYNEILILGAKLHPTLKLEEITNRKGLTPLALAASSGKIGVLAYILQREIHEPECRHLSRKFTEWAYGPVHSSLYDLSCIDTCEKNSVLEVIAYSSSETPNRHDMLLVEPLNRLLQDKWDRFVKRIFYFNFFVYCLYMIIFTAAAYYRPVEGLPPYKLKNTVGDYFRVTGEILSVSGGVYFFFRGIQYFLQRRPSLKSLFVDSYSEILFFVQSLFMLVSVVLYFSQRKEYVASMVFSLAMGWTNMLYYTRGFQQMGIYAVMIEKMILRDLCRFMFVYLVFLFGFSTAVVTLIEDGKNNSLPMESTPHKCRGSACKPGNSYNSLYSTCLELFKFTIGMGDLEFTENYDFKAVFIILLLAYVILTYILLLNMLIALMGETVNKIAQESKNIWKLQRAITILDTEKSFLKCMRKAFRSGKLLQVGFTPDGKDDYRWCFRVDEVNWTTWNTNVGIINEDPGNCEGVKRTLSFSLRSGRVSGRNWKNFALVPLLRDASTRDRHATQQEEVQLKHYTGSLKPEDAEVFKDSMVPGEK
SMILES,IC50 (vanilloid TRPV1 receptor [1]) [nM],Mobilization of [Ca2+]i evoked by KCl [2],concentration giving complete inhibition of the response to capsaicin (vanilloid TRPV1 receptor [1]) [µM],threshold concentration that produced an inhibitory effect (vanilloid TRPV1 receptor [1]) [nM],effect on capsaicin-induced wiping in rats (vanilloid TRPV1 receptor [3]),ED50 capsaicin-induced wiping (vanilloid TRPV1 receptor [3])
"Oc1cc2c(cc1O)CN(C(=S)NCCc1ccc(Cl)cc1)CCC2 [capsazepine, reference compound]",2340,,,,,
"COc1cc(CNC(=S)NCc2ccc(C(F)(F)F)cc2)c(I)cc1O [Ic, 1-(4-trifluoromethyl)-3-(2-iodo-4-hydroxy-5-methoxybenzyl) thiourea]",70,not affected,3,1,significantly reduced,7.20 (6.34-7.89) mg/kg
"COc1cc(CNC(=S)NCc2ccc(C(C)(C)C)cc2)c(I)cc1O [Ia, 1-(4-tert-butyl)-3-(2-iodo-4-hydroxy-5-methoxybenzyl) thiourea]",3.48,not affected,0.1,0.1,significantly reduced,2.76 (2.05-3.35) mg/kg
"COc1cc(CNC(=S)NCc2ccc(C(C)(C)C)cc2)c(Cl)cc1O [Ib, 1-(4-tert-butyl)-3-(2-chloro-4-hydroxy-5-methoxybenzyl) thiourea]",3.86,not affected,,0.1,,
